Biological target: Voltage-dependent T-type calcium channel subunit alpha-1H (Homo sapiens, UniProt O95180)
Test: PubChem AID 489005

Voltage-dependent T-type calcium channel subunit alpha-1H, sequence (O95180 whole entry): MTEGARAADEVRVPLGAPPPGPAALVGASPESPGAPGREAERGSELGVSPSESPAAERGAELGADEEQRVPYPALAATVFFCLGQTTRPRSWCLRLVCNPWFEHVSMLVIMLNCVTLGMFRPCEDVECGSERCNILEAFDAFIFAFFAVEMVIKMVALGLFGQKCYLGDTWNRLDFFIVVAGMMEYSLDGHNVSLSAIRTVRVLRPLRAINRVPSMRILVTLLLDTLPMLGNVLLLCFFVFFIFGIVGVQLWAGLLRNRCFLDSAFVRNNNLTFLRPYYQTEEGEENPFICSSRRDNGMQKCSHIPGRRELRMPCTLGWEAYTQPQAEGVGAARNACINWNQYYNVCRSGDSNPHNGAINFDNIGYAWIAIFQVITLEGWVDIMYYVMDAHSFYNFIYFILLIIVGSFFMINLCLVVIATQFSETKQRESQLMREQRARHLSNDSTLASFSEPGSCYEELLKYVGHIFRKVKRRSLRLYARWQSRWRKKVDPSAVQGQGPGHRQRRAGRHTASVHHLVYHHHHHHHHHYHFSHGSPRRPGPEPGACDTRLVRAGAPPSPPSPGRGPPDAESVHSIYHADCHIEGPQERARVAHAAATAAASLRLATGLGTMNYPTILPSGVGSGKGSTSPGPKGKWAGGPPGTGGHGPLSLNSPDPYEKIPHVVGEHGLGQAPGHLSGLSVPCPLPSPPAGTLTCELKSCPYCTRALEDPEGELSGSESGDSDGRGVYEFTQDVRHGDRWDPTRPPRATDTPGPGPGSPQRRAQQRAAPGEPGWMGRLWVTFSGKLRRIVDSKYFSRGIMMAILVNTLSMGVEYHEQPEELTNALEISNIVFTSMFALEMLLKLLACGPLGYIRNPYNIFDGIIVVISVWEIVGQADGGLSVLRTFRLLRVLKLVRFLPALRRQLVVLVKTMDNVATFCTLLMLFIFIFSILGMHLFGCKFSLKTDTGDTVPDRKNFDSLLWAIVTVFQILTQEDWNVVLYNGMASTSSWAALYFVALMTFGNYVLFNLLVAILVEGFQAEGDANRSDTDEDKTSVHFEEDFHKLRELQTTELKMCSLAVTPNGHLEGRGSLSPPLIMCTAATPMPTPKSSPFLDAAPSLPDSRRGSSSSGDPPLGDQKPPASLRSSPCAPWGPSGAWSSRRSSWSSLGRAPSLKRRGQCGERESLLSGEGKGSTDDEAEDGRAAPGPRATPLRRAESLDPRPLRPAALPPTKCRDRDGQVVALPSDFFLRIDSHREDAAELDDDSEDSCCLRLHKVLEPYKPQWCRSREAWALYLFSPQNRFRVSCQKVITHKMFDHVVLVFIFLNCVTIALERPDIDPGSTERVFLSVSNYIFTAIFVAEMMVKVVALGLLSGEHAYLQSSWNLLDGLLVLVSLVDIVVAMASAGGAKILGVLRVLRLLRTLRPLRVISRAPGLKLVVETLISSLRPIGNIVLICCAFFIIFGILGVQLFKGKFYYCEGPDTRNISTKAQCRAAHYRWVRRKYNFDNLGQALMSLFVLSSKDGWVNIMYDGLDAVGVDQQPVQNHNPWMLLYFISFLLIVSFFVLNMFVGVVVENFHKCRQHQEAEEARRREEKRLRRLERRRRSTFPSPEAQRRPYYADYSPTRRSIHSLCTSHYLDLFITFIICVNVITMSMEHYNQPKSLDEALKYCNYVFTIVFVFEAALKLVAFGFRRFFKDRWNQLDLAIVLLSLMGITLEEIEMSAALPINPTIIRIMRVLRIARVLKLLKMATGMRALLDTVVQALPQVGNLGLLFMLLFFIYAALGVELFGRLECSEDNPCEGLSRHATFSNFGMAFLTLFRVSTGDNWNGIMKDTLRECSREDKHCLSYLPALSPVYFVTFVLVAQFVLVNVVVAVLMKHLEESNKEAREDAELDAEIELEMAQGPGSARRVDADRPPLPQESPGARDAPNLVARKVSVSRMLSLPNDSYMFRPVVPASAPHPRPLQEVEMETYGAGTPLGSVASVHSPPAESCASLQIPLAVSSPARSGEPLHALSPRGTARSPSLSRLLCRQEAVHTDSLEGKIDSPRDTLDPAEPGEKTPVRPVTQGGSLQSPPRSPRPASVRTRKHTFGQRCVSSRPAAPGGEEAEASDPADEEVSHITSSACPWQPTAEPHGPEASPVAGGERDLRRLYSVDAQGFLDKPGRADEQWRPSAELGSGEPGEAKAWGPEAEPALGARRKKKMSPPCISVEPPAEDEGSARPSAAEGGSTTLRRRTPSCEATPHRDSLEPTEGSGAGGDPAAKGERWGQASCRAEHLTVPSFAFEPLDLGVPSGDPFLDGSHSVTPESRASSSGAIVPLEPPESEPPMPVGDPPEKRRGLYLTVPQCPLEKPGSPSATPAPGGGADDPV

Row | SMILES | EC50 [µM]
1 | COc1cccc(N2CCN(c3cc(O)n(-c4ccc(Cl)c(Cl)c4)c3O)CC2)c1 [1-(3,4-dichlorophenyl)-3-[4-(3-methoxyphenyl)-1-piperazinyl]pyrrolidine-2,5-dione] | 6.84
2 | CCN(CC)S(=O)(=O)c1ccc2c(c1)C(N=O)c1cc(S(=O)(=O)N(CC)CC)ccc1-2 [N2,N2,N7,N7-tetraethyl-9-hydroxyimino-fluorene-2,7-disulfonamide] | 1.6
3 | O=NC1c2cc(S(=O)(=O)N3CCCCC3)ccc2-c2ccc(S(=O)(=O)N3CCCCC3)cc21 [2,7-Bis-(piperidine-1-sulfonyl)-fluoren-9-one oxime] | 12.3
4 | CC(CC(=O)c1ccncc1)=Nc1ccccc1O | 3.26

Second part, the molecule after the results:

Row | EC50 [µM] | SMILES
5 | 3 | CCCCCCC1=Cc2c/c(=C3/NN=C(c4ccccc4)O3)c(=O)oc2=CC1=O [MLS000068623]
6 | 1.52 | CC1CCN(S(=O)(=O)c2ccc(N=NC(C#N)C#N)cc2)CC1 [SMR000162322]
7 | 613 | Oc1cc(SCCc2nc3ccccc3[nH]2)c(O)n1-c1ccc(Cl)cc1 [SMR000199589]
8 | 3.78 | Cc1ccc(-c2csc(NC(=O)c3cccc(-n4c(O)ccc4O)c3)n2)o1 [SMR000018545]
9 | 8.16 | COc1ccc(C(C(=O)C(O)c2c[nH]c3ccccc23)N2CCN(c3ccccc3)CC2)cc1 (stereo unspecified) [MLS000053208]
10 | 14.8 | CC(C)CC(C(=O)C(C#N)c1nc2ccccc2[nH]1)N1C(=O)c2ccccc2C1=O (stereo unspecified) [MLS000109709]
11 | 2.11 | O=NC(c1ccc(Cl)cc1Cl)c1ncc(C(F)(F)F)cc1Cl (stereo unspecified) [MLS000540015]

— BindingDB's records for doi:10.7270/Q2B856KG (Vanderbilt Screening Center For Gpcrs, Ion Channels and …, 2010)
